From PubChem BioAssay (NCI)
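Dose response: 5 concentrations. Exposure: 48 h. Format: 96-well plates. Endpoint: linear interpolation; highest concentration if not reached. Abbreviation: GI50, concentration required for 50% inhibition of growth. At the TGI there is no net growth.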

What was measured:
Experiment in all cases: growth of human tumour cells (NCI), 48 h
TK-10 renal = test system: TK-10 renal
SK-MEL-28 melanoma = test system: SK-MEL-28 melanoma
OVCAR-5 ovarian = test system: OVCAR-5 ovarian
U251 CNS = test system: U251 CNS
A498 renal = test system: A498 renal
SW-620 colon = test system: SW-620 colon
KM12 colon = test system: KM12 colon
SNB-75 CNS = test system: SNB-75 CNS
MALME-3M melanoma = test system: MALME-3M melanoma
786-0 renal = test system: 786-0 renal
PC-3 prostate = test system: PC-3 prostate
SK-MEL-5 melanoma = test system: SK-MEL-5 melanoma
UACC-62 melanoma = test system: UACC-62 melanoma
SNB-19 CNS = test system: SNB-19 CNS
LOX IMVI melanoma = test system: LOX IMVI melanoma
EKVX NSCLC = test system: EKVX NSCLC
HCT-15 colon = test system: HCT-15 colon
A549 NSCLC = test system: A549 NSCLC
NCI/ADR-RES ovarian = test system: NCI/ADR-RES ovarian
HS 578T breast = test system: HS 578T breast
M14 melanoma = test system: M14 melanoma
OVCAR-8 ovarian = test system: OVCAR-8 ovarian
OVCAR-3 ovarian = test system: OVCAR-3 ovarian
HOP-92 NSCLC = test system: HOP-92 NSCLC
ACHN renal = test system: ACHN renal
SF-268 CNS = test system: SF-268 CNS
T-47D breast = test system: T-47D breast
COLO 205 colon = test system: COLO 205 colon
UO-31 renal = test system: UO-31 renal
K-562 leukemia = test system: K-562 leukemia
MCF7 breast = test system: MCF7 breast
SN12C renal = test system: SN12C renal
SF-539 CNS = test system: SF-539 CNS
HL-60(TB) leukemia = test system: HL-60(TB) leukemia
SK-OV-3 ovarian = test system: SK-OV-3 ovarian
SF-295 CNS = test system: SF-295 CNS
SK-MEL-2 melanoma = test system: SK-MEL-2 melanoma
UACC-257 melanoma = test system: UACC-257 melanoma
OVCAR-4 ovarian = test system: OVCAR-4 ovarian
DU-145 prostate = test system: DU-145 prostate
IGROV1 ovarian = test system: IGROV1 ovarian
CAKI-1 renal = test system: CAKI-1 renal
NCI-H460 lung = test system: NCI-H460 lung
MDA-MB-468 breast = test system: MDA-MB-468 breast
RPMI-8226 leukemia = test system: RPMI-8226 leukemia
BT-549 breast = test system: BT-549 breast
MDA-MB-231 breast = test system: MDA-MB-231 breast
HCT-116 colon = test system: HCT-116 colon
HOP-62 NSCLC = test system: HOP-62 NSCLC
HT29 colon = test system: HT29 colon
SR leukemia = test system: SR leukemia
CCRF-CEM leukemia = test system: CCRF-CEM leukemia
MDA-MB-435 = test system: MDA-MB-435
MOLT-4 leukemia = test system: MOLT-4 leukemia
NCI-H23 lung = test system: NCI-H23 lung
NCI-H522 lung = test system: NCI-H522 lung
HCC-2998 colon = test system: HCC-2998 colon
NCI-H226 lung = test system: NCI-H226 lung

Cc1oc(-c2ccccc2)nc1CN[C@@H]1C[C@@H]2C[C@H]([C@H]1C)C2(C)C
GI50 (TK-10 renal): 15.4 µM | TGI (TK-10 renal): 31.5 µM | GI50 (SK-MEL-28 melanoma): 7.59 µM | TGI (SK-MEL-28 melanoma): 20.3 µM | GI50 (OVCAR-5 ovarian): 7.9 µM | TGI (OVCAR-5 ovarian): 20.6 µM | GI50 (U251 CNS): 7.61 µM | TGI (U251 CNS): 22.8 µM | GI50 (A498 renal): 13.5 µM | TGI (A498 renal): 26.8 µM | GI50 (SW-620 colon): 11.4 µM | TGI (SW-620 colon): 24.5 µM | GI50 (KM12 colon): 9.49 µM | TGI (KM12 colon): 21.8 µM | GI50 (SNB-75 CNS): 13.2 µM | TGI (SNB-75 CNS): 26.6 µM | GI50 (MALME-3M melanoma): 2.87 µM | TGI (MALME-3M melanoma): 13.6 µM | GI50 (786-0 renal): 5.64 µM | TGI (786-0 renal): 21.1 µM | GI50 (PC-3 prostate): 7.17 µM | TGI (PC-3 prostate): 23.1 µM | GI50 (SK-MEL-5 melanoma): 3.32 µM | TGI (SK-MEL-5 melanoma): 11.9 µM | GI50 (UACC-62 melanoma): 12.5 µM | TGI (UACC-62 melanoma): 25 µM | GI50 (SNB-19 CNS): 14.2 µM | TGI (SNB-19 CNS): 27.3 µM | GI50 (LOX IMVI melanoma): 5.17 µM | TGI (LOX IMVI melanoma): 18.1 µM | GI50 (EKVX NSCLC): 11.2 µM | TGI (EKVX NSCLC): 23.3 µM | GI50 (HCT-15 colon): 3.85 µM | TGI (HCT-15 colon): 15.5 µM | GI50 (A549 NSCLC): 14 µM | TGI (A549 NSCLC): 33.6 µM | GI50 (NCI/ADR-RES ovarian): 12.7 µM | TGI (NCI/ADR-RES ovarian): 25.5 µM | GI50 (HS 578T breast): 11.9 µM | TGI (HS 578T breast): 30.5 µM | GI50 (M14 melanoma): 2.21 µM | TGI (M14 melanoma): 5.78 µM | GI50 (OVCAR-8 ovarian): 14.1 µM | TGI (OVCAR-8 ovarian): 31.8 µM | GI50 (OVCAR-3 ovarian): 12.7 µM | TGI (OVCAR-3 ovarian): 25.6 µM | GI50 (HOP-92 NSCLC): 1.49 µM | TGI (HOP-92 NSCLC): 12.6 µM | GI50 (ACHN renal): 13.7 µM | TGI (ACHN renal): 26.5 µM | GI50 (SF-268 CNS): 11.6 µM | TGI (SF-268 CNS): 25.7 µM | GI50 (T-47D breast): 4.42 µM | TGI (T-47D breast): 21.4 µM | GI50 (COLO 205 colon): 2.11 µM | TGI (COLO 205 colon): 5.3 µM | GI50 (UO-31 renal): 4.65 µM | TGI (UO-31 renal): 18.8 µM | GI50 (K-562 leukemia): 3.63 µM | TGI (K-562 leukemia): > 100 µM | GI50 (MCF7 breast): 7.06 µM | TGI (MCF7 breast): 21.4 µM | GI50 (SN12C renal): 10.5 µM | TGI (SN12C renal): 22.5 µM | GI50 (SF-539 CNS): 12.5 µM | TGI (SF-539 CNS): 25 µM | GI50 (HL-60(TB) leukemia): 18 µM | TGI (HL-60(TB) leukemia): 37.7 µM | GI50 (SK-OV-3 ovarian): 16.8 µM | TGI (SK-OV-3 ovarian): 32.3 µM | GI50 (SF-295 CNS): 15.6 µM | TGI (SF-295 CNS): 29.1 µM | GI50 (SK-MEL-2 melanoma): 14.5 µM | TGI (SK-MEL-2 melanoma): 28.4 µM | GI50 (UACC-257 melanoma): 7.95 µM | TGI (UACC-257 melanoma): 21.4 µM | GI50 (OVCAR-4 ovarian): 11.4 µM | TGI (OVCAR-4 ovarian): 25.8 µM | GI50 (DU-145 prostate): 10.1 µM | TGI (DU-145 prostate): 21.8 µM | GI50 (IGROV1 ovarian): 10.1 µM | TGI (IGROV1 ovarian): 22.1 µM | GI50 (CAKI-1 renal): 13.3 µM | TGI (CAKI-1 renal): 26.1 µM | GI50 (NCI-H460 lung): 6.32 µM | TGI (NCI-H460 lung): 20.3 µM | GI50 (MDA-MB-468 breast): 2.13 µM | TGI (MDA-MB-468 breast): 8.29 µM | GI50 (RPMI-8226 leukemia): 3.82 µM | TGI (RPMI-8226 leukemia): 19.2 µM | GI50 (BT-549 breast): 4.94 µM | TGI (BT-549 breast): 19.1 µM | GI50 (MDA-MB-231 breast): 4.56 µM | TGI (MDA-MB-231 breast): 16.9 µM | GI50 (HCT-116 colon): 4.3 µM | TGI (HCT-116 colon): 18.3 µM | GI50 (HOP-62 NSCLC): 14.2 µM | TGI (HOP-62 NSCLC): 32.4 µM | GI50 (HT29 colon): 3.39 µM | TGI (HT29 colon): 15 µM | GI50 (SR leukemia): 10.6 µM | TGI (SR leukemia): 36.7 µM | GI50 (CCRF-CEM leukemia): 18.9 µM | TGI (CCRF-CEM leukemia): 48.6 µM | GI50 (MDA-MB-435): 13.3 µM | TGI (MDA-MB-435): 26.5 µM | GI50 (MOLT-4 leukemia): 16.6 µM | TGI (MOLT-4 leukemia): 45.9 µM | GI50 (NCI-H23 lung): 12.8 µM | TGI (NCI-H23 lung): 25.9 µM | GI50 (NCI-H522 lung): 12.7 µM | TGI (NCI-H522 lung): 28.4 µM | GI50 (HCC-2998 colon): 4.22 µM | TGI (HCC-2998 colon): 16.6 µM | GI50 (NCI-H226 lung): 8.99 µM | TGI (NCI-H226 lung): 25 µM
